Data taken from US20250161319A1, “USE OF HPK1 INHIBITOR IN TREATMENT OF INTERFERON-RELATED DISEASES” (priority 2022, published 2025).
pIC50: −log10 of the molar value.

Tests used:
CDK4 = CDK4 (Homo sapiens (Human), UniProt P11802); assay: Kinase panel inhibition rate at 10 μM; format: biochemical
IGFIR = IGFIR (Homo sapiens (Human), UniProt P08069); assay: Kinase panel inhibition rate at 10 μM; format: biochemical
ZAP70 = ZAP70 (Homo sapiens (Human), UniProt P43403); assay: Kinase panel inhibition rate at 10 μM; format: biochemical
ATR = ATR (Homo sapiens (Human), UniProt Q13535); assay: Kinase panel inhibition rate at 10 μM; format: biochemical
LCK = LCK (Homo sapiens (Human), UniProt P06239); assay: Kinase panel inhibition rate at 10 μM; format: biochemical
p38-alpha = p38-alpha (Homo sapiens (Human), UniProt Q16539); assay: Kinase panel inhibition rate at 10 μM; format: biochemical
CDK12 = CDK12 (Homo sapiens (Human), UniProt Q9NYV4); assay: Kinase panel inhibition rate at 10 μM; format: biochemical
HPK1 = HPK1 (Homo sapiens (Human), UniProt Q92918); assay: Inhibition of HPK1 kinase activity in vitro (ADP-Glo), compounds of Formula I-2; format: biochemical
Protocol: The starting concentration for all tested compounds was 10 μM, and diluted in three-fold concentration gradient for a total of 10 concentration points in duplicate. Before the experiment, 50 μM DTT and the enzymatic reaction system buffer were prepared. […] A mixture of 2-fold concentration of MBP and ATP was prepare in the kinase buffer, and 2.5 μL of prepared mixture of 2-fold concentration of MBP and ATP was added into the above reaction system for the reaction, centrifuged at 1000 g for 30 s, and then incubated at room temperature for 1 h. 5 μL of ADP-Glo reagent was added into the reaction system, and incubated at room temperature for 40 min. 10 μL of kinase detection reagent was added and incubated at room temperature for 40 min. […] In the above formula, empd refers to the tested compound, PC refers to the positive control, and VC refers to the negative control.

PDK1 = PDK1 (Homo sapiens (Human), UniProt O15530); assay: Inhibition of PDK1 kinase activity in vitro (ADP-Glo); format: biochemical
Protocol: (§1) The starting concentration for all tested compounds was 10 μM, and diluted in three-fold concentration gradient for a total of 10 concentration points in duplicate. […] A mixture of 2-fold concentration of MBP and ATP was prepare in the kinase buffer, and 2.5 μL of prepared mixture of 2-fold concentration of MBP and ATP was added into the above reaction system for the reaction, centrifuged at 1000 g for 30 s, and then incubated at room temperature for 1 h. 5 μL of ADP-Glo reagent was added into the reaction system, and incubated at room temperature for 40 min. 10 μL of kinase detection reagent was added and incubated at room temperature for 40 min.

[1] = Acute toxicity assay of DD02001A_trans in mice by gavage; format: in vivo; settings: single dose, observed 14 days
Protocol: Mice were given DD02001A_trans (2000, 1500, 1000, and 500 mg/kg) by gavage in a single dose, respectively, and the responses of the mice after administration and their deaths within two weeks were recorded. • 2.2.5.1 Animals: Kunming breed mice (purchased from Guangdong Provincial Laboratory Animal Centre, License No.: SCXK(GD) 2018-0002), 10 mice, half male and half female, weighing 18-22 g. The mice were kept for three days to adapt to the environment. […] Necropsy was carried out on the dead animals in time to record the lesions. If obvious changes are visible to naked eyes, pathological section should be made.

ERK1.2 = assay: Kinase panel inhibition rate at 10 μM; format: biochemical
HER2 = HER2 (Homo sapiens (Human), UniProt P04626); assay: Kinase panel inhibition rate at 10 μM; format: biochemical
GCK = GCK (Homo sapiens (Human), UniProt Q12851); assay: Inhibition of GCK kinase activity in vitro (ADP-Glo); format: biochemical
Protocol: as §1

CSF1R = CSF1R (Homo sapiens (Human), UniProt P07333); assay: Kinase panel inhibition rate at 10 μM; format: biochemical
AKT1 = AKT1 (Homo sapiens (Human), UniProt P31749); assay: Kinase panel inhibition rate at 10 μM; format: biochemical
PI3Kα = PI3Kα (Homo sapiens (Human), UniProt P42336); assay: Kinase panel inhibition rate at 10 μM; format: biochemical
SYK = SYK (Homo sapiens (Human), UniProt P43405); assay: Kinase panel inhibition rate at 10 μM; format: biochemical
CDK7 = CDK7 (Homo sapiens (Human), UniProt P50613); assay: Kinase panel inhibition rate at 10 μM; format: biochemical
CK1gamma1 = CK1gamma1 (Homo sapiens (Human), UniProt Q9HCP0); assay: Kinase panel inhibition rate at 10 μM; format: biochemical
MNK1/2 = assay: Kinase panel inhibition rate at 10 μM; format: biochemical
JAK1 = JAK1 (Homo sapiens (Human), UniProt P23458); assay: Kinase panel inhibition rate at 10 μM; format: biochemical
LYNB = LYNB (Homo sapiens (Human), UniProt P07948); assay: Kinase panel inhibition rate at 10 μM; format: biochemical
IKK-beta = IKK-beta (Homo sapiens (Human), UniProt O14920); assay: Kinase panel inhibition rate at 10 μM; format: biochemical
EGFR = EGFR (Homo sapiens (Human), UniProt P00533); assay: Kinase panel inhibition rate at 10 μM; format: biochemical
ROS1 = ROS1 (Homo sapiens (Human), UniProt P08922); assay: Kinase panel inhibition rate at 10 μM; format: biochemical
TNIK = TNIK (Homo sapiens (Human), UniProt Q9UKE5); assay: Inhibition of TNIK kinase activity in vitro (ADP-Glo); format: biochemical
Protocol: as §1

[2] = Determination of pharmacokinetic parameters in SD rats; format: in vivo; settings: rat, plasma, oral; male SD rats; intravenously 2 mg/kg, gavage 10 mg/kg; read-out: Absolute oral bioavailability %
Protocol: The compounds to be tested were administered intravenously (2 mg/kg) and by gavage ([…]) to three male SD rats, respectively, and the blood concentration of the compounds to be tested in plasma was quantified by liquid chromatography tandem mass spectrometry ([…]), and the pharmacokinetic parameters were calculated to investigate the pharmacokinetic profiles of the compounds to be tested in the SD male rats. For the compounds to be tested, blood was taken at the time points of 0.25 h, 0.5 h, 1 h, 2 h, 4 h, 6 h, 8 h and 24 h after oral administration, and blood was taken at the time points of 0.083 h, 0.25 h, 0.5 h, 1 h, 2 h, 4 h, 6 h, 8 h and 24 h after intravenous administration. Subsequently, 50 μL of plasma sample was transferred to a 96-well plate and 250 μLACN (internal standard containing 260 ng/ml toluenesulfonylbutyramide) to precipitate proteins, and centrifuged at 4° C. and 4000 rpm for 20 min, 150 μL of the supernatant was transferred to a new 96-well plate and mixed with 150 μL of 0.1% FA/water, and then 5 μL of the resulting solution was loaded on LC-MS/MS for analysis.

LYNB, sequence (P07948 other isoform, or with tags, fused parts or gaps): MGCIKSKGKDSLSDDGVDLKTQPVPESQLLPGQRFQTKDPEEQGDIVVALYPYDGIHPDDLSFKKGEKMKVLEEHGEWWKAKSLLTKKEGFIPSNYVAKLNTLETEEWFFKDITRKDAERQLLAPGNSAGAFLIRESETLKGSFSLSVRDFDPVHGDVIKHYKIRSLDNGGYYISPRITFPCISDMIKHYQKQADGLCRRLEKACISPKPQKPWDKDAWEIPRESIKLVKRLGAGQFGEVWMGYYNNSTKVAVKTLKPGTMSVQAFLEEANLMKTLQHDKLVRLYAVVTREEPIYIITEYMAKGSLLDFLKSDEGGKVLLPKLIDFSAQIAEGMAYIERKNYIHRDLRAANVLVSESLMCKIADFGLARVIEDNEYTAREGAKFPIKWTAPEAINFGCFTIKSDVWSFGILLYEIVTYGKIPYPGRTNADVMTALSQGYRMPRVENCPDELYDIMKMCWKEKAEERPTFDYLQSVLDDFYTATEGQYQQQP
EGFR, sequence (P00533 25-1210): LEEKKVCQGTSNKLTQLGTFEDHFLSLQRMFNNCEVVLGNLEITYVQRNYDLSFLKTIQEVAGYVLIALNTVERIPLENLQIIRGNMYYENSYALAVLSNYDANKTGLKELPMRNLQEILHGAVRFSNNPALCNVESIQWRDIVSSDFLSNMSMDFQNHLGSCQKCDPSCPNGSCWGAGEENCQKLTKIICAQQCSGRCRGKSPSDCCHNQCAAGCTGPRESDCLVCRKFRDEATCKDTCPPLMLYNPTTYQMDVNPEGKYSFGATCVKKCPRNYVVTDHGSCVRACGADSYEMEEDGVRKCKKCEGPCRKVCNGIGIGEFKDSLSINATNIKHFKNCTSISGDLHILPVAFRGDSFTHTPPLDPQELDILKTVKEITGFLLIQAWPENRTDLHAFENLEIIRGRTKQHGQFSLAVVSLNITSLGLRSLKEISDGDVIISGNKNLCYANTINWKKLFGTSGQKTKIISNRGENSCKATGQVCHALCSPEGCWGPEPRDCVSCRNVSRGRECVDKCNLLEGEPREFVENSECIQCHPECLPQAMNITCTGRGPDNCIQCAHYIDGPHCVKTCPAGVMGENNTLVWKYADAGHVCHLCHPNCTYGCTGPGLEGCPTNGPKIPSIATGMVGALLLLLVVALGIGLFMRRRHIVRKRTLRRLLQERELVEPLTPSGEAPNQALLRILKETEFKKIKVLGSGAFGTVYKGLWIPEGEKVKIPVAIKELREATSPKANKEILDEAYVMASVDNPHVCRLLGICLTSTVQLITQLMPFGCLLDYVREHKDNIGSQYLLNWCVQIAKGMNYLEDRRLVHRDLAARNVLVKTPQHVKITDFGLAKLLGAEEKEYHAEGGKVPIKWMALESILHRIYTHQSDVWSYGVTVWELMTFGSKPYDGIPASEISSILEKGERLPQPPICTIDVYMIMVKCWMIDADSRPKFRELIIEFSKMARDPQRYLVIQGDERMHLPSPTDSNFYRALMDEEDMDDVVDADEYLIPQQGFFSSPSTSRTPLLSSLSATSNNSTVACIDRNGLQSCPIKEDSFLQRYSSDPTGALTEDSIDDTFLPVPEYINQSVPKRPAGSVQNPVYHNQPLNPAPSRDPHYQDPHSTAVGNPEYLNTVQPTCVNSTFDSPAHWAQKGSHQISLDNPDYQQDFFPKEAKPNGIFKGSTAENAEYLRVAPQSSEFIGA
CSF1R, sequence (P07333 20-972, species assumed): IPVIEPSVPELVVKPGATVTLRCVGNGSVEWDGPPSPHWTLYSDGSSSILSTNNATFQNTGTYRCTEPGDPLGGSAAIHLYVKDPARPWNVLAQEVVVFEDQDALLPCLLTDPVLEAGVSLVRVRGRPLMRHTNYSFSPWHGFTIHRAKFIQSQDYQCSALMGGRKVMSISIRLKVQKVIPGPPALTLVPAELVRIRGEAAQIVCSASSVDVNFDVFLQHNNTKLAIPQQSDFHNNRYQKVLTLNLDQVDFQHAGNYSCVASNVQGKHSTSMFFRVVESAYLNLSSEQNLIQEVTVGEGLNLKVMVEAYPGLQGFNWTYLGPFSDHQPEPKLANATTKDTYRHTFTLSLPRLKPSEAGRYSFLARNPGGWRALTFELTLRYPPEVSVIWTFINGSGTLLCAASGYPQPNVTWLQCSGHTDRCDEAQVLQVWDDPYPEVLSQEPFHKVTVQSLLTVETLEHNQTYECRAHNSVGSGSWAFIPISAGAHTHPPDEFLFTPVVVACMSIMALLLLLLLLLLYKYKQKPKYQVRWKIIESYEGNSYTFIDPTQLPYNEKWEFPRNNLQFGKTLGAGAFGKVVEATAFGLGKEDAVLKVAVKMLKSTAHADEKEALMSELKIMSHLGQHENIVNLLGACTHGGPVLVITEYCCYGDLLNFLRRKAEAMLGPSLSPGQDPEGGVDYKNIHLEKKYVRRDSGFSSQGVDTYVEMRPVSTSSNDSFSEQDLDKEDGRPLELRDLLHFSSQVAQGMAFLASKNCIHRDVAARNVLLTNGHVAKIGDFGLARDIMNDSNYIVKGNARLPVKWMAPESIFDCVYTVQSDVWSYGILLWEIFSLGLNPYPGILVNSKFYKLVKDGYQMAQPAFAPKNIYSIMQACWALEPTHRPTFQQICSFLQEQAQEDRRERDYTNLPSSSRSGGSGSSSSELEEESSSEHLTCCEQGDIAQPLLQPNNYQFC
IKK-beta, sequence (O14920 whole entry): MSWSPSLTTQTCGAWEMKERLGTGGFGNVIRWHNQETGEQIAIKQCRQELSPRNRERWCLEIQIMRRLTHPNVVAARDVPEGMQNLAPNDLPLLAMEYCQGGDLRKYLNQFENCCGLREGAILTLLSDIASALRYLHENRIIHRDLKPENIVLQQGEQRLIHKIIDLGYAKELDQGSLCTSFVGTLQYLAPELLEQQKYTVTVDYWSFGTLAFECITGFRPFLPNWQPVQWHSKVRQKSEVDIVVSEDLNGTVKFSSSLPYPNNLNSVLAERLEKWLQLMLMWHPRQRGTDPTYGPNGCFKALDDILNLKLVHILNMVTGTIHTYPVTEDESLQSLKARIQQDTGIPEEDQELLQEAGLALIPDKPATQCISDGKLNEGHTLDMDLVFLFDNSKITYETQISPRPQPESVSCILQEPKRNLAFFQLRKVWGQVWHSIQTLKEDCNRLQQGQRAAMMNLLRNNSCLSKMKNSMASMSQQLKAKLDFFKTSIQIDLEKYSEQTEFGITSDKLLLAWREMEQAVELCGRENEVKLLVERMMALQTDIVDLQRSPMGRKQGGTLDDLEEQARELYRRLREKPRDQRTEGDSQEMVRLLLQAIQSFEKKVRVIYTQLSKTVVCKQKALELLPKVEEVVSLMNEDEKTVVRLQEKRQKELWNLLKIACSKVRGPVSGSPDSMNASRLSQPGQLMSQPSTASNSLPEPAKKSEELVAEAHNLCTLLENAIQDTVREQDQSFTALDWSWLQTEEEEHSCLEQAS
TNIK, sequence (Q9UKE5 whole entry): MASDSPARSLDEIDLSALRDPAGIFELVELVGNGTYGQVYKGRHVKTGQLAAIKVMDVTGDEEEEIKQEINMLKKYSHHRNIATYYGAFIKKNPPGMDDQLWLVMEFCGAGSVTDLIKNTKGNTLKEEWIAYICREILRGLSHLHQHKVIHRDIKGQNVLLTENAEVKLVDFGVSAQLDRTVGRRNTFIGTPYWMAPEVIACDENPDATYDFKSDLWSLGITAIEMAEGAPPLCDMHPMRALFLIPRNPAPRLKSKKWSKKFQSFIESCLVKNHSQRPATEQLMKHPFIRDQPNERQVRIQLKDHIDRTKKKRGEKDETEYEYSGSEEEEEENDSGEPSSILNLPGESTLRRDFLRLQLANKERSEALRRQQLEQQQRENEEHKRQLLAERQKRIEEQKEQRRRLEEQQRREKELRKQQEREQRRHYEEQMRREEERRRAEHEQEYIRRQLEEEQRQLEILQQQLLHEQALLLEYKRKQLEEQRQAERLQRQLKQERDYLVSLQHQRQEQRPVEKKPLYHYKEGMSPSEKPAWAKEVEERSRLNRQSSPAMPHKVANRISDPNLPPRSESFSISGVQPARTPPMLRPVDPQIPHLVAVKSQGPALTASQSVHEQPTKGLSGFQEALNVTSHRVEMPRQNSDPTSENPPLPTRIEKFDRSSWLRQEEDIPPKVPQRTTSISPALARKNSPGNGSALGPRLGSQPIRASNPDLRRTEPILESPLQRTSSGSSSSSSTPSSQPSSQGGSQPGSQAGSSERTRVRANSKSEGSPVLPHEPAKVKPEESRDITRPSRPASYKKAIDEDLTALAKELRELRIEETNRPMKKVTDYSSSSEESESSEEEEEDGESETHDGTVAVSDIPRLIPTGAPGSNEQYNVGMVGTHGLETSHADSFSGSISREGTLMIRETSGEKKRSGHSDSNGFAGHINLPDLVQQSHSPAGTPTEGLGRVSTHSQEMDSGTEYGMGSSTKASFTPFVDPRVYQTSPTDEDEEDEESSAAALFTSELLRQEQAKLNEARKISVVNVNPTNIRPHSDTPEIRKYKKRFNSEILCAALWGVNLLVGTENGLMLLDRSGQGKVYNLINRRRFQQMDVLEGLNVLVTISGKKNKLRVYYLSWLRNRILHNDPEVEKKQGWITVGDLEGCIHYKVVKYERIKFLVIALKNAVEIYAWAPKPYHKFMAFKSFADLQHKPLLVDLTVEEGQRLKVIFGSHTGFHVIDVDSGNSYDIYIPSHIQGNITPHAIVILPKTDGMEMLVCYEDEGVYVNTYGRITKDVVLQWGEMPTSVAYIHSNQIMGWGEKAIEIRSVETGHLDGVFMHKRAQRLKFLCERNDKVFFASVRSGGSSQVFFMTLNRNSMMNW

## Cn1cccc1-c1cc2cc(NC(=O)[C@@H]3C[C@H]3F)ncc2c(N)c1F [DD02001A trans, (1S,2R)—N-(8-amino-7-fluoro-6-(1-methyl-1H-pyrrole-2-yl)isoquinolin-3-yl)-2-fluorocyclopropane-1-carboxamide]
CDK4
  inhibition at 10 µM: < 40%
IGFIR
  inhibition at 10 µM: < 40%
ZAP70
  inhibition at 10 µM: < 40%
ATR
  inhibition at 10 µM: < 40%
LCK
  inhibition at 10 µM: 87.6%
p38-alpha
  inhibition at 10 µM: < 40%
CDK12
  inhibition at 10 µM: < 40%
HPK1
  pIC50: > 8.00
PDK1
  pIC50: < 5.00
[1]
  maximum tolerated dosage by gavage: 1000 to 1500 mg/kg
ERK1.2
  inhibition rate ERK1.2: < 40%
HER2
  inhibition at 10 µM: < 40%
GCK
  pIC50: < 8.00
CSF1R
  inhibition at 10 µM: 102%
AKT1
  inhibition at 10 µM: < 40%
PI3Kα
  inhibition at 10 µM: 79.1%
SYK
  inhibition at 10 µM: 85.1%
CDK7
  inhibition at 10 µM: < 40%
CK1gamma1
  inhibition at 10 µM: < 40%
MNK1/2
  inhibition rate MNK1/2: < 40%
JAK1
  inhibition at 10 µM: 97.3%
LYNB
  inhibition at 10 µM: 82.9%
IKK-beta
  inhibition at 10 µM: < 40%
EGFR
  inhibition at 10 µM: < 40%
ROS1
  inhibition at 10 µM: < 40%
TNIK
  pIC50: < 8.00
[2]
  bioavailability: 61.3%
